For test [1], the system named is Mycobacterium avium. The experiment in a line: Antimycobacterial activity against Mycobacterium avium 1581 at 0.2 mg/mL after 15 days relative to control. It is filed as functional. The following applies: 360 h.
The test system of test [2] is Mycobacterium tuberculosis. The experiment in a line: Antimycobacterial activity against Mycobacterium tuberculosis H37Rv after 7 days by resazurin method. The test is classed as functional. To be noted: 168 h.
Test [3] relates to Mycobacterium avium. The experiment in a line: Antimycobacterial activity against Mycobacterium avium 1581 at 0.4 mg/mL after 15 days relative to control. It is filed as functional. The following applies: for inhibition at 400 µg/mL: 360 h.
For test [4], the system named is Mycobacterium tuberculosis. The experiment in a line: Antimycobacterial activity against non-replicating Mycobacterium tuberculosis assessed as colony forming unit after 8 days. It is filed as functional. To be noted: 192 h.
In test [5] the test system is Mycobacterium tuberculosis. The experiment in a line: Antimycobacterial activity against Mycobacterium tuberculosis H37Rv infected in BALB/c mouse assessed as reduction of bacterial load in lungs at 25 mg/kg/day, intragastrically after 1 month relative to control. The test is classed as functional, organism-based.
Test [6] has as its system Mycobacterium tuberculosis. As to the kind of experiment: Antimycobacterial activity against Mycobacterium tuberculosis H37Rv infected in BALB/c mouse assessed as lungs affected by pneumonia at 25 mg/kg/day, intragastrically after 1 month by histopathology study relative to control. The test is classed as functional, organism-based.
The test system of test [7] is Mycobacterium tuberculosis. As to the kind of experiment: Antimycobacterial activity against non-replicating Mycobacterium tuberculosis assessed as luciferase activity incubated for 8 days measured after 24 hrs of incubation by low oxygen recover assay. It is filed as functional.
Test [8] deals with Mycobacterium tuberculosis. The experiment in a line: Antimycobacterial activity against Mycobacterium tuberculosis H37Rv infected in BALB/c mouse assessed as reduction of bacterial load in lungs at 5 mg/kg/day, intragastrically after 1 month relative to control. It is filed as functional, organism-based.
Test [9] concerns Vero. As to the kind of experiment: Cytotoxicity against african green monkey Vero cells after 72 hrs by MTS assay. To be noted: Chlorocebus sabaeus. It is filed as cell-based. (Formazan colour is commonly taken as a measure of viable cells.)
The nature of test [10]: Selectivity index, ratio of IC50 for african green monkey Vero cells to MIC for non-replicating Mycobacterium tuberculosis. The test is classed as functional.
Test [11] deals with Mycobacterium avium. As to the kind of experiment: Antimycobacterial activity against Mycobacterium avium 1581 at 0.1 mg/mL after 15 days relative to control. The test is classed as functional. To be noted: 360 h.

SMILES strings stand for the structures. Converted amounts (≈) assume the structure as drawn. The source made the active and inactive calls. The rule behind the calls is not given here.

Usually inhibition stands for the drop in the measured response relative to a control, in per cent. Usually MIC stands for the lowest concentration found to suppress growth. As a reminder, the MBC is the lowest tested concentration that kills the bacteria rather than only halting them. What is called IC50 is the point on the concentration scale where inhibition reaches its midpoint.

Take `CO[C@H]1/C=C/O[C@@]2(C)Oc3c(C)c(O)c4c(c3[C@H]2O)C2=NC3(CCN(CC(C)C)CC3)N(C(C)=O)C2=C(NC(=O)/C(C)=C\C=C\[C@H](C)[C@H](O)[C@@H](C)[C@@H](O)[C@@H](C)[C@H](OC(C)=O)[C@@H]1C)C4=O`: in [1], 200 µg/mL produced 54% inhibition. In addition, the MIC in [2] was 0.1 µg/mL (≈ 0.112 µM). In test [3], this compound displayed an inhibition at 400 µg/mL above 99%.

In turn, `CO[C@H]1/C=C/O[C@@]2(C)Oc3c(C)c(O)c4c(c3[C@H]2O)C2=NC3(CC[N+]([O-])(CC(C)C)CC3)NC2=C(NC(=O)/C(C)=C\C=C\[C@H](C)[C@H](O)[C@@H](C)[C@@H](O)[C@@H](C)[C@H](OC(C)=O)[C@@H]1C)C4=O` (stereo partly specified) had an inhibition at 200 µg/mL in test [1] of 44%. The compound further yielded an MIC in test [2] of 0.6 µg/mL (≈ 0.694 µM). The compound also registered an inhibition at 400 µg/mL in [3] of 53%.

In [1], `C=CCCCCCCCCC(=O)N1C2=C3NC(=O)/C(C)=C\C=C\[C@H](C)[C@H](O)[C@@H](C)[C@@H](O)[C@@H](C)[C@H](OC(C)=O)[C@H](C)[C@@H](OC)/C=C/O[C@@]4(C)Oc5c(C)c(O)c(c(c5C4=O)C2=NC12CCN(CC(C)C)CC2)C3=O` came in with an inhibition at 200 µg/mL of 60%. In addition, the MIC worked out at 0.1 µg/mL (≈ 0.0987 µM) in test [2] and 0.08 µM (≈ 0.0811 µg/mL) in test [7]. In addition, the MBC in test [4] is 0.08 µM (≈ 0.0811 µg/mL). The result in [5], in test [6] and in test [8] was inactive. Besides, the inhibition at 400 µg/mL in test [3] is above 99%. This compound had an IC50 in [9] of 36.9 µM. For the same compound, the Selectivity ratio in test [10] is 462.

For the compound `CO[C@H]1/C=C/O[C@@]2(C)Oc3c(C)c(O)c4c(O)c(c(/C=N/N5CCN(C)CC5)c(O)c4c3C2=O)NC(=O)/C(C)=C\C=C\[C@H](C)[C@H](O)[C@@H](C)[C@@H](O)[C@@H](C)[C@H](OC(C)=O)[C@@H]1C` [RIFAMPIN], the MBC in test [4] was determined as 0.39 µM (≈ 0.321 µg/mL). Besides, the minimal inhibitory concentration (MIC) in test [7] is 1.41 µM (≈ 1.16 µg/mL). In test [9], this compound came in with an IC50 of 138 µM. Besides, the Selectivity ratio in test [10] amounted to 98.

Turning to `CCCCCCCCCCCCCCCC(=O)N1C2=C3NC(=O)/C(C)=C\C=C\[C@H](C)[C@H](O)[C@@H](C)[C@@H](O)[C@@H](C)[C@H](OC(C)=O)[C@H](C)[C@@H](OC)/C=C/O[C@@]4(C)Oc5c(C)c(O)c(c(c5C4=O)C2=NC12CCN(CC(C)C)CC2)C3=O`, the MIC in [2] was found to be 0.1 µg/mL (≈ 0.0921 µM); in test [7], 1.08 µM (≈ 1.17 µg/mL). In addition, the MBC in [4] is 0.14 µM (≈ 0.152 µg/mL). For the same compound, the IC50 in [9] was above 34.8 µM. Besides, in test [10], the Selectivity ratio is above 32.

The compound `CO[C@H]1/C=C/O[C@@]2(C)Oc3c(C)c(O)c4c(c3C2=O)C2=NC3(CC[N+]([O-])(CC(C)C)CC3)NC2=C(NC(=O)/C(C)=C\C=C\[C@H](C)[C@H](O)[C@@H](C)[C@@H](O)[C@@H](C)[C@H](O)[C@@H]1C)C4=O` (stereo partly specified) registered an MIC in test [2] of 0.6 µg/mL (≈ 0.731 µM). Further, the outcome in [3] was inactive.

The compound `CO[C@H]1/C=C/O[C@@]2(C)Oc3c(C)c(O)c4c(c3[C@H]2O)C2=NC3(CCN(CC(C)C)CC3)NC2=C(NC(=O)/C(C)=C\C=C\[C@H](C)[C@H](O)[C@@H](C)[C@@H](O)[C@@H](C)[C@H](O)[C@@H]1C)C4=O` displayed an MIC in test [2] of 0.2 µg/mL (≈ 0.248 µM). The result in [3] was inactive.

Consider `CO[C@H]1/C=C/O[C@@]2(C)Oc3c(C)c(O)c4c(c3C2=O)C2=NC3(CC[N+]([O-])(CC(C)C)CC3)NC2=C(NC(=O)/C(C)=C\C=C\[C@H](C)[C@H](O)[C@@H](C)[C@@H](O)[C@@H](C)[C@H](OC(C)=O)[C@@H]1C)C4=O` (stereo partly specified), for which the MIC in test [2] was 0.2 µg/mL (≈ 0.232 µM); in test [7], 0.44 µM (≈ 0.38 µg/mL). For the same compound, the MBC in test [4] was 0.28 µM (≈ 0.242 µg/mL). In [3], the result was inactive. The IC50 in test [9] was above 35.8 µM. For the same compound, the Selectivity ratio in test [10] is on record as above 82.

For `CO[C@H]1/C=C/O[C@@]2(C)Oc3c(C)c(O)c4c(c3C2=O)C2=NC3(CCN(CC(C)C)CC3)N(C(C)=O)C2=C(NC(=O)/C(C)=C\C=C\[C@H](C)[C@H](O)[C@@H](C)[C@@H](O)[C@@H](C)[C@H](OC(C)=O)[C@@H]1C)C4=O`, in test [1], the inhibition at 200 µg/mL was above 99%. For the same compound, the MIC in test [2] was below 0.013 µg/mL; in test [7] it was 0.28 µM (≈ 0.249 µg/mL). The MBC in test [4] stood at 0.18 µM (≈ 0.16 µg/mL). For the same compound, the result in test [5] and in test [8] was Active. This compound gave an inhibition at 400 µg/mL in test [3] above 99%. In [9], this compound displayed an IC50 above 92.7 µM. Besides, in test [10], the Selectivity ratio is above 331.

Compound `CO[C@H]1/C=C/O[C@@]2(C)Oc3c(C)c(O)c4c(c3C2=O)C2=NC3(CCN(CC(C)C)CC3)NC2=C(NC(=O)/C(C)=C\C=C\[C@H](C)[C@H](O)[C@@H](C)[C@@H](O)[C@@H](C)[C@H](OC(C)=O)[C@@H]1C)C4=O` [RIFABUTIN] registered an inhibition at 200 µg/mL in [1] above 99%. Further, the MIC in [2] is below 0.013 µg/mL; in [7], 0.08 µM (≈ 0.0678 µg/mL). Besides, in test [11], the inhibition at 100 µg/mL is above 99%. In [4], the MBC amounted to 0.05 µM (≈ 0.0424 µg/mL). In [9], this compound registered an IC50 above 46.6 µM. Moreover, the Selectivity ratio in test [10] is above 582.

Compound `CO[C@H]1/C=C/O[C@@]2(C)Oc3c(C)c(O)c4c(c3[C@H]2O)C2=NC3(CCN(CC(C)C)CC3)NC2=C(NC(=O)/C(C)=C\C=C\[C@H](C)[C@H](O)[C@@H](C)[C@@H](O)[C@@H](C)[C@H](OC(C)=O)[C@@H]1C)C4=O` [RIFABUTINOL] came in with an inhibition at 200 µg/mL in test [1] of 86%. Besides, in test [2], the MIC was below 0.05 µg/mL. Moreover, the inhibition at 400 µg/mL in [3] was above 99%.

In turn, `CO[C@H]1/C=C/O[C@@]2(C)Oc3c(C)c(O)c4c(c3C2=O)C2=NC3(CCN(CC(C)C)CC3)NC2=C(NC(=O)/C(C)=C\C=C\[C@H](C)[C@H](O)[C@@H](C)[C@@H](O)[C@@H](C)[C@H](O)[C@@H]1C)C4=O` had an inhibition at 200 µg/mL in test [1] of 91%. For the same compound, the MIC came out at 0.025 µg/mL (≈ 0.0311 µM) in [2] and 0.29 µM (≈ 0.233 µg/mL) in test [7]. For the same compound, the MBC in test [4] is 0.18 µM (≈ 0.145 µg/mL). The same compound showed an inhibition at 400 µg/mL in [3] above 99%. This compound had an IC50 in test [9] above 46.6 µM. In [10], the Selectivity ratio is above 161.
